From patent publication US7994172B2, “[1H-pyrazolo[3, 4-D]pyrimidin-4-yl]-piperidine or -piperazine compounds as serine-theoronine kinase modulators (P70s6k, Atk1 and Atk2) for the treatment of immunological, inflammatory and proliferative diseases” (Exelixis, Inc., priority 2004, dated 2011)
pIC50: −log10 of the molar value.

How the values were obtained:
Assay type in all cases: biochemical
[1] = molecular target: T1, human p70S6 kinase (p70S6K, kinase domain residues 1-421, T412E mutation) (Homo sapiens, UniProt P23443, T412E); experiment: p70S6 kinase assay, Luciferase-Coupled Chemiluminescent Kinase assay (LCCA); conditions: 5 μM ATP, 12 nM p70S6K; read-out: p70S6K inhibition IC50
T1 construct: human p70S6 kinase domainresidues 1-421, containing a T412E mutation; made in house
T1 sequence (P23443 1-421 T412E): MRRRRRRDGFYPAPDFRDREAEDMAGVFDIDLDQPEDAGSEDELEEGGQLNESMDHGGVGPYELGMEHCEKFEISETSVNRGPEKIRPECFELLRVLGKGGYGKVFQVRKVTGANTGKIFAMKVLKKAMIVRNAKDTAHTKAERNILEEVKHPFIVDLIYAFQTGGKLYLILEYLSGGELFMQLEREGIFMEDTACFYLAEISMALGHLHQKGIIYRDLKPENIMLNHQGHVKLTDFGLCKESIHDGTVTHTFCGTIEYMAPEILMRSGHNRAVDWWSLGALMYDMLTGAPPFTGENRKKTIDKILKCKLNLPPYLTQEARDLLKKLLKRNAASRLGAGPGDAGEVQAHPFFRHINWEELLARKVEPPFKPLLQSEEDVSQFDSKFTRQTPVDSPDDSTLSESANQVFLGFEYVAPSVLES
Experimental: (§1) Kinase activity and compound inhibition are investigated using one or more of the three assay formats described below. The ATP concentrations for each assay are selected to be close to the Michaelis-Menten constant (KM) for each individual kinase. Dose-response experiments are performed at 10 different inhibitor concentrations in a 384-well plate format. The data are fitted to four-parameter equation (2) below; where Y is the observed signal, X is the inhibitor concentration, Min is the background signal in the absence of enzyme (0% enzyme activity), Max is the signal in the absence of inhibitor (100% enzyme activity), IC50 is the inhibitor concentration at 50% enzyme inhibition and H represents the empirical Hill's slope to measure the cooperativity. Typically H is close to unity. Y=Min+(Max−Min)/(1+(X/IC50)^H) Equation (2) p70S6 Kinase Assay
Biochemical activity of p70S6 kinase was assessed using a Luciferase-Coupled Chemiluminescent Kinase assay (LCCA) format. Kinase activity was measured as the percent ATP remaining following the kinase reaction. Remaining ATP was detected by luciferase-luciferin-coupled chemiluminescence. Specifically, the reaction was initiated by mixing test compounds, 5 μM ATP, 5 μM RRRLSSLRA peptide and 12 nM p70S6K (baculovirus expressed human p70S6 kinase domainresidues 1-421, containing a T412E mutation) in a 20 uL assay buffer (20 mM Tris-HCL pH 7.5, 10 mM MgCl2, 0.02% Triton X-100, 100 mM DTT, 2 mM MnCl2). The mixture is incubated at ambient temperature for 2 hours after which 20 μL luciferase-luciferin mix is added and the chemiluminescent signal read using a Wallac Victor^2 reader. The luciferase-luciferin mix consists of 50 mM HEPES, pH 7.8, 8.5 μg/mL oxalic acid (pH 7.8), 5 (or 50) mM DTT, 0.4% Triton X-100, 0.25 mg/mL coenzyme A, 63 uM AMP, 28 μg/mL luciferin and 40,000 units/mL luciferase.

[2] = molecular target: T2, human Akt2 kinase (kinase domain residues K146-R480) (Homo sapiens, UniProt P31751); experiment: Akt2 kinase assay, Luciferase-Coupled Chemiluminescent Kinase assay (LCCA); conditions: 2 μM ATP, 10 nM Akt2; read-out: Akt-2 inhibition IC50
T2 construct: human Akt2 kinase domain residues K146-R480; made in house
T2 sequence (P31751 146-480): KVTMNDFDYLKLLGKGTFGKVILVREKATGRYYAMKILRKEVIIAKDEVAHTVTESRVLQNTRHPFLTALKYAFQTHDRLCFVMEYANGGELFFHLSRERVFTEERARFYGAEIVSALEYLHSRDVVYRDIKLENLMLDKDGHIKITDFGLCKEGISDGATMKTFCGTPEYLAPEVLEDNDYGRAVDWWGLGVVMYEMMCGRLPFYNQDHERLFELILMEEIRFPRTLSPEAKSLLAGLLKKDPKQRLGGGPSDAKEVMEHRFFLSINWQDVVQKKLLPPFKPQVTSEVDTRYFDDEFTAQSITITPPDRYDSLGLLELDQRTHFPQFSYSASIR
Experimental: as §1
Biochemical activity of Akt2 kinase was assessed using a Luciferase-Coupled Chemiluminescent Kinase assay (LCCA) format. Kinase activity was measured as the percent ATP remaining following the kinase reaction. Remaining ATP was detected by luciferase-luciferin-coupled chemiluminescence. Specifically, the reaction was initiated by mixing test compounds, 2 μM ATP, 5 μM crosstide peptide and 10 nM Akt2 (baculovirus expressed human Akt2 kinase domain residues K146-R480) in a 20 uL assay buffer (20 mM Tris-HCL pH 7.5, 10 mM MgCl2, 0.03% Triton X-100, 1 mM DTT, 3 mM MnCl2). The mixture is incubated at ambient temperature for 2 hours after which 20 μL luciferase-luciferin mix is added and the chemiluminescent signal read using a Wallac Victor2 reader. The luciferase-luciferin mix consists of 50 mM HEPES, pH 7.8, 8.5 μg/mL oxalic acid (pH 7.8), 5 (or 50) mM DTT, 0.4% Triton X-100, 0.25 mg/mL coenzyme A, 63 uM AMP, 28 μg/mL luciferin and 40,000 units/mL luciferase.

[3] = molecular target: T3, human Akt1 kinase (kinase domain residues R144-A480, activated with PDK1) (Homo sapiens, UniProt P31749); experiment: Akt1 kinase assay, Luciferase-Coupled Chemiluminescent Kinase assay (LCCA); conditions: 1 μM ATP, 1.3 nM Akt1; read-out: Akt-1 inhibition IC50
T3 construct: made in house
T3 sequence (P31749 144-480): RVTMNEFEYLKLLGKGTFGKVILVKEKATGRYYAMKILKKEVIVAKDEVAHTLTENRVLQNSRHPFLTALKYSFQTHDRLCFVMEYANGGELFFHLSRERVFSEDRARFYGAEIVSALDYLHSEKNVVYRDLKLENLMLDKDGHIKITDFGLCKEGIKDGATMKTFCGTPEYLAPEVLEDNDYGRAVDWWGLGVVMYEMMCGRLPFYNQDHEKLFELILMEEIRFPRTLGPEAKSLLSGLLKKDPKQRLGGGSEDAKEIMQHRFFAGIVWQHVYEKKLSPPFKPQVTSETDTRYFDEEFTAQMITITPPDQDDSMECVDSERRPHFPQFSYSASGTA
Experimental: as §1
Biochemical activity of Akt1 kinase was assessed using a Luciferase-Coupled Chemiluminescent Kinase assay (LCCA) format. Kinase activity was measured as the percent ATP remaining following the kinase reaction. Remaining ATP was detected by luciferase-luciferin-coupled chemiluminescence. Specifically, the reaction was initiated by mixing test compounds, 1 μM ATP, 5 μM crosstide peptide and 1.3 nM Akt1 (baculovirus expressed human Akt1 kinase domain residues R144-A480, activated with PDK1) in a 20 uL assay buffer (20 mM Tris-HCL pH 7.5, 10 mM MgCl2, 0.01% Triton X-100, 1 mM DTT, 3 mM MnCl2). The mixture is incubated at ambient temperature for 3 hours after which 20 μL luciferase-luciferin mix is added and the chemiluminescent signal read using a Wallac Victor2 reader. The luciferase-luciferin mix consists of 50 mM HEPES, pH 7.8, 8.5 μg/mL oxalic acid (pH 7.8), 5 (or 50) mM DTT, 0.4% Triton X-100, 0.25 mg/mL coenzyme A, 63 uM AMP, 28 μg/mL luciferin and 40,000 units/mL luciferase.

CN(C)CCOC(c1ccc(Cl)cc1)C1CCN(c2ncnc3[nH]nc(Br)c23)CC1 (centres unmarked) [Entry 2, 2-{[[1-(3-bromo-1H-pyrazolo[3,4-d]pyrimidin-4-yl)piperidin-4-yl](4-chlorophenyl)methyl]oxy}-N,N-dimethylethanamine]
pIC50 [1]: > 7.30
pIC50 [2]: 6.30 to 7.30
pIC50 [3]: > 7.30

CC(C)(C)c1ccc(CN2CCN(c3ncnc4[nH]nc(Br)c34)CC2)cc1 [Entry 7, 3-bromo-4-(4-{[4-(1,1-dimethylethyl)phenyl]methyl}piperazin-1-yl)-1H-pyrazolo[3,4-d]pyrimidine]
pIC50 [1]: > 7.30
pIC50 [2]: < 5.70
pIC50 [3]: < 5.70

FC(F)(F)c1ccc(CN2CCN(c3ncnc4[nH]nc(Br)c34)CC2)cc1 [Entry 11, 3-bromo-4-(4-{[4-(trifluoromethyl)phenyl]methyl}piperazin-1-yl)-1H-pyrazolo[3,4-d]pyrimidine]
pIC50 [1]: > 7.30
pIC50 [2]: < 5.70
pIC50 [3]: 5.70 to 6.30

Clc1ccc(CN2CCN(c3ncnc4[nH]nc(Br)c34)CC2)cc1 [Entry 19, 3-bromo-4-{4-[(4-chlorophenyl)methyl]piperazin-1-yl}-1H-pyrazolo[3,4-d]pyrimidine]
pIC50 [1]: > 7.30
pIC50 [2]: < 5.70
pIC50 [3]: 6.30 to 7.30

Clc1ccc(CN2CCN(c3ncnc4[nH]nc(Br)c34)CC2)cc1Cl [Entry 27, 3-bromo-4-{4-[(3,4-dichlorophenyl)methyl]piperazin-1-yl}-1H-pyrazolo[3,4-d]pyrimidine]
pIC50 [1]: > 7.30
pIC50 [2]: < 5.70
pIC50 [3]: 6.30 to 7.30

CCc1n[nH]c2ncnc(N3CCC([C@@H](OCCN(C)C)c4ccc(Cl)cc4)CC3)c12 [Entry 88, 2-({(R)-(4-chlorophenyl)[1-(3-ethyl-1H-pyrazolo[3,4-d]pyrimidin-4-yl)piperidin-4-yl]methyl}oxy)-N,N-dimethylethanamine]
pIC50 [1]: > 7.30
pIC50 [3]: > 7.30

CN(C)CCO[C@H](c1ccc(Cl)cc1)C1CCN(c2ncnc3[nH]nc(Br)c23)CC1 [Entry 89, 2-{[(S)-[1-(3-bromo-1H-pyrazolo[3,4-d]pyrimidin-4-yl)piperidin-4-yl](4-chlorophenyl)methyl]oxy}-N,N-dimethylethanamine]
pIC50 [1]: > 7.30
pIC50 [3]: > 7.30

Clc1ccc([C@H](OCCN2CCCC2)C2CCN(c3ncnc4[nH]nc(Br)c34)CC2)cc1 [Entry 90, 3-bromo-4-(4-{(R)-(4-chlorophenyl)[(2-pyrrolidin-1-ylethyl)oxy]methyl}piperidin-1-yl)-1H-pyrazolo[3,4-d]pyrimidine]
pIC50 [1]: > 7.30
pIC50 [3]: > 7.30

CN(C)CCCC(O)(c1ccc(Cl)cc1)C1CCN(c2ncnc3[nH]nc(Br)c23)CC1 (centres unmarked) [Entry 91, 1-[1-(3-bromo-1H-pyrazolo[3,4-d]pyrimidin-4-yl)piperidin-4-yl]-1-(4-chlorophenyl)-4-(dimethylamino)butan-1-ol]
pIC50 [1]: > 7.30
pIC50 [3]: > 7.30

CN(C)CCO[C@@H](c1ccc(Cl)c(F)c1)C1CCN(c2ncnc3[nH]nc(Br)c23)CC1 [Entry 92, 2-{[(R)-[1-(3-bromo-1H-pyrazolo[3,4-d]pyrimidin-4-yl)piperidin-4-yl](4-chloro-3-fluorophenyl)methyl]oxy}-N,N-dimethylethanamine]
pIC50 [1]: > 7.30
pIC50 [3]: > 7.30

Clc1ccc([C@H](OCCN2CCCCC2)C2CCN(c3ncnc4[nH]nc(Br)c34)CC2)cc1 [Entry 93, 3-bromo-4-(4-{(R)-(4-chlorophenyl)[(2-piperidin-1-ylethyl)oxy]methyl}piperidin-1-yl)-1H-pyrazolo[3,4-d]pyrimidine]
pIC50 [1]: > 7.30
pIC50 [3]: > 7.30

CN(C)CCCC(c1ccc(Cl)cc1)C1CCN(c2ncnc3[nH]nc(Br)c23)CC1 (centres unmarked) [Entry 94, 4-[1-(3-bromo-1H-pyrazolo[3,4-d]pyrimidin-4-yl)piperidin-4-yl]-4-(4-chlorophenyl)-N,N-dimethylbutan-1-amine]
pIC50 [1]: > 7.30
pIC50 [3]: > 7.30

Clc1ccc([C@H](OCCN2CCOCC2)C2CCN(c3ncnc4[nH]nc(Br)c34)CC2)cc1 [Entry 95, 3-bromo-4-(4-{(R)-(4-chlorophenyl)[(2-morpholin-4-ylethyl)oxy]methyl}piperidin-1-yl)-1H-pyrazolo[3,4-d]pyrimidine]
pIC50 [1]: > 7.30
pIC50 [3]: > 7.30

CN(Cc1ccco1)C(c1ccc(F)cc1)C1CCN(c2ncnc3[nH]nc(Br)c23)CC1 (centres unmarked) [Entry 96, 1-[1-(3-bromo-1H-pyrazolo[3,4-d]pyrimidin-4-yl)piperidin-4-yl]-1-(4-fluorophenyl)-N-(furan-2-ylmethyl)-N-methylmethanamine]
pIC50 [1]: 6.30 to 7.30
pIC50 [3]: 5.70 to 6.30

CN(Cc1ccccn1)C(c1ccc(F)cc1)C1CCN(c2ncnc3[nH]nc(Br)c23)CC1 (centres unmarked) [Entry 97, 1-[1-(3-bromo-1H-pyrazolo[3,4-d]pyrimidin-4-yl)piperidin-4-yl]-1-(4-fluorophenyl)-N-methyl-N-(pyridin-2-ylmethyl)methanamine]
pIC50 [1]: 6.30 to 7.30
pIC50 [3]: 5.70 to 6.30

CN(C)c1ccc(CN(C)C(c2ccc(F)cc2)C2CCN(c3ncnc4[nH]nc(Br)c34)CC2)cc1 (centres unmarked) [Entry 98, 4-{[{[1-(3-bromo-1H-pyrazolo[3,4-d]pyrimidin-4-yl)piperidin-4-yl](4-fluorophenyl)methyl}(methyl)amino]methyl}-N,N-dimethylaniline]
pIC50 [1]: > 7.30
pIC50 [3]: 6.30 to 7.30

OC(c1ccc2cc[nH]c2c1)N1CCN(c2ncnc3[nH]nc(Br)c23)CC1 (centres unmarked) [Entry 99, [4-(3-bromo-1H-pyrazolo[3,4-d]pyrimidin-4-yl)piperazin-1-yl](1H-indol-6-yl)methanol]
pIC50 [1]: 6.30 to 7.30
pIC50 [3]: 5.70 to 6.30

Fc1cc([C@H](OCCN2CCCC2)C2CCN(c3ncnc4[nH]nc(Br)c34)CC2)ccc1Cl [Entry 100, 3-bromo-4-(4-{(R)-(4-chloro-3-fluorophenyl)[(2-pyrrolidin-1-ylethyl)oxy]methyl}piperidin-1-yl)-1H-pyrazolo[3,4-d]pyrimidine]
pIC50 [1]: > 7.30
pIC50 [3]: > 7.30

Clc1ccc(OC2CCN(c3ncnc4[nH]nc(Br)c34)CC2)cc1 [Entry 101, 3-bromo-4-{4-[(4-chlorophenyl)oxy]piperidin-1-yl}-1H-pyrazolo[3,4-d]pyrimidine]
pIC50 [1]: 6.30 to 7.30
pIC50 [3]: 5.70 to 6.30

CCN(CC)CCO[C@@H](c1ccc(Cl)cc1)C1CCN(c2ncnc3[nH]nc(Br)c23)CC1 [Entry 102, 2-{[(R)-[1-(3-bromo-1H-pyrazolo[3,4-d]pyrimidin-4-yl)piperidin-4-yl](4-chlorophenyl)methyl]oxy}-N,N-diethylethanamine]
pIC50 [1]: > 7.30
pIC50 [3]: > 7.30

Clc1ccc(OC2CCN(c3ncnc4[nH]nc(Br)c34)CC2)c(NCCN2CCCC2)c1 [Entry 103, 2-{[1-(3-bromo-1H-pyrazolo[3,4-d]pyrimidin-4-yl)piperidin-4-yl]oxy}-5-chloro-N-(2-pyrrolidin-1-ylethyl)aniline]
pIC50 [1]: 6.30 to 7.30
pIC50 [3]: 6.30 to 7.30
